Counter-ions that a name gives are not always drawn.
Biological target: T1, human CaMKIIδ (Homo sapiens, UniProt Q13557)
T1 construct: Full-length, glutathione-S-transferase(GST)-tagged, human CaMKIIδ was purchased from Carna Biosciences; purchased Carna Biosciences (CaMKIIδ); Wako Pure Chemical Industries (calmodulin) 02-111
Test: In vitro CaMKII inhibitory activity (binding assay, TR-FRET)
Conditions: activity ranks
Experimental: Evaluation of In Vitro CaMKII Inhibitory Activity (Binding Assay)
In vitro CaMKIIδ inhibitory activity was evaluated by a binding assay.
Full-length, glutathione-S-transferase(GST)-tagged, human CaMKIIδ was purchased from Carna Biosciences (product #02-111, Kobe, Japan). Full-length bovine calmodulin was purchased from Wako Pure Chemical Industries (Osaka, Japan). Terbium-labeled anti-GST antibody (Tb-anti-GST Ab) was purchased from Life Technologies (Carlsbad, Calif., USA). Boron-dipyrromethene (BODIPY)-labeled probe ligand was synthesized as described below.
Time-Resolved Fluorescence Resonance Energy Transfer (TR-FRET) Assay
All assays were conducted using 384-well, white, flat-bottomed plates (product #784075, Greiner Bio-One, Frickenhausen, Germany) in kinase assay buffer, which consists of 50 mM HEPES pH 7.6, 10 mM MgCl2, 1 mM EGTA, 0.01% Brig-35, 0.1 mM DTT). The fluorescent probe ligand was added at a final concentration of 300 nM to solutions containing 0.21 nM Tb-anti-GST Ab, 1 mM CaCl2, 10 μg/mL calmodulin, and 0.5 nM GST-tagged CaMKIIδ. After shaded incubation of the protein-probe mixture on ice for 30 min, the premix was dispensed in the assay plate including test inhibitors with 4 fold dilution series of eight concentrations. After 1 hr incubation at room temperature, TR-FRET signals were measured in duplicate using an EnVision microplate reader (Perkin Elmer, Waltham, Mass., USA). The solution in each well was excited with a laser (λ=340 nm) reflected by a dichroic mirror (D400/D505 (Perkin Elmer) through an excitation filter (UV (TRF) 340, (Perkin Elmer)), and fluorescence from Tb and BODIPY were detected through two emission filters (CFP 495 (Perkin Elmer) for Tb, Emission 520 (Perkin Elmer) for BODIPY).
The percentage of inhibition of test compounds was calculated according to equation (1) Inhibition(%)=100×(μH−T)/(μH−μL) (1)
Where T is the value of the wells containing test compounds and μH and μL are the mean values of the 0% and 100% inhibition control wells, respectively. The values of the 0 and 100% controls were the signals obtained in the absence and presence of 3 μM its parent compound, respectively. The half maximal inhibitory concentration (IC50) of test compounds was calculated by fitting the data with the logistic equation using XLfit (IDBS, Guildford, UK). The IC50 was classified according to the following activity ranks.

[1] = Table 1, GST-tagged human CaMKIIδ
[2] = Table 4, GST-tagged human CaMKIIδ

Row | Structure (SMILES) | IC50 [1] [nM] | IC50 [2] [nM]
1 | COCCCCOc1nn([C@H]2CC[C@H](N3CCOCC3)CC2)cc1Nc1ncc(-c2ccc(C#N)c(O[C@@H](C)Cn3cnnn3)c2)cn1 [Example 150, 2-(((S)-1-(1H-tetrazol-1-yl)propan-2-yl)oxy)-4-(2-((3-(4-methoxybutoxy)-1-((1r,4r)-4-morpholinocyclohexyl)-1H-pyrazol-4-yl)amino)pyrimidin-5-yl)benzonitrile] | < 10 | –
2 | COCCCCOc1nn([C@H]2CC[C@H](N3CCOCC3)CC2)cc1Nc1ncc(-c2ccc(Cl)c(O[C@@H](C)Cn3cnnn3)c2)cn1 [Example 151, 5-(3-(((S)-1-(1H-tetrazol-1-yl)propan-2-yl)oxy)-4-chlorophenyl)-N-(3-(4-methoxybutoxy)-1-((1r,4r)-4-morpholinocyclohexyl)-1H-pyrazol-4-yl)pyrimidin-2-amine] | < 10 | –
3 | COCCOCCOc1nn([C@H]2CC[C@H](N3C[C@@H](C)O[C@@H](C)C3)CC2)cc1Nc1ncc(-c2ccc(Cl)c(O[C@@H](C)Cn3cnnn3)c2)cn1 [Example 240, 5-(3-(((S)-1-(1H-tetrazol-1-yl)propan-2-yl)oxy)-4-chlorophenyl)-N-(1-((1r,4r)-4-((2S,6R)-2,6-dimethylmorpholino)cyclohexyl)-3-(2-(2-methoxyethoxy)ethoxy)-1H-pyrazol-4-yl)pyrimidin-2-amine hydrochloride] | < 10 | –
4 | CCOCCCOc1nn([C@H]2CC[C@H](N3[C@@H]4CC[C@H]3COC4)CC2)cc1Nc1ncc(-c2ccc(Cl)c(O[C@@H](C)Cn3cnnn3)c2)cn1 [Example 242, 5-(3-(((S)-1-(1H-tetrazol-1-yl)propan-2-yl)oxy)-4-chlorophenyl)-N-(1-((1r,4r)-4-((1R,5S)-3-oxa-8-azabicyclo[3.2.1]octan-8-yl)cyclohexyl)-3-(3-ethoxypropoxy)-1H-pyrazol-4-yl)pyrimidin-2-amine] | < 10 | –
5 | C[C@@H](Cn1cnnn1)Oc1cc(-c2cnc(Nc3cn([C@H]4CC[C@H](N5[C@@H]6CC[C@H]5COC6)CC4)nc3OCCO)nc2)ccc1Cl [Example 243, 2-((4-((5-(3-(((S)-1-(1H-tetrazol-1-yl)propan-2-yl)oxy)-4-chlorophenyl)pyrimidin-2-yl)amino)-1-((1r,4r)-4-((1R,5S)-3-oxa-8-azabicyclo[3.2.1]octan-8-yl)cyclohexyl)-1H-pyrazol-3-yl)oxy)ethan-1-ol] | < 10 | –
6 | C[C@@H](Cn1cnnn1)Oc1cc(-c2cnc(Nc3cn([C@H]4CC[C@H](N5[C@@H]6CC[C@H]5COC6)CC4)nc3OCCO)nc2)ccc1C#N [Example 244, 2-(((S)-1-(1H-tetrazol-1-yl)propan-2-yl)oxy)-4-(2-((1-((1r,4r)-4-((1R,5S)-3-oxa-8-azabicyclo[3.2.1]octan-8-yl)cyclohexyl)-3-(2-hydroxyethoxy)-1H-pyrazol-4-yl)amino)pyrimidin-5-yl)benzonitrile] | < 10 | –
7 | C[C@@H](Cn1cnnn1)Oc1cc(-c2cnc(Nc3cn([C@H]4CC[C@H](N5CCOCC5)CC4)nc3O)nc2)ccc1C#N [Example 461, 2-(((S)-1-(1H-tetrazol-1-yl)propan-2-yl)oxy)-4-(2-((3-hydroxy-1-((1r,4r)-4-morpholinocyclohexyl)-1H-pyrazol-4-yl)amino)pyrimidin-5-yl)benzonitrile] | < 10 | –
8 | C[C@@H](Cn1cnnn1)Oc1cc(-c2cnc(Nc3cn([C@H]4CC[C@H](N5CCOCC5)CC4)nc3O)nc2)ccc1Cl [Example 462, 4-((5-(3-(((S)-1-(1H-tetrazol-1-yl)propan-2-yl)oxy)-4-chlorophenyl)pyrimidin-2-yl)amino)-1-((1r,4r)-4-morpholinocyclohexyl)-1H-pyrazol-3-ol] | < 10 | –
9 | C[C@@H]1CN([C@H]2CC[C@H](n3cc(Nc4ncc(-c5ccc(Cl)c(O[C@@H](C)Cn6cnnn6)c5)cn4)c(OCc4nncn4C)n3)CC2)C[C@H](C)O1 [Example 473, 5-(3-(((S)-1-(1H-tetrazol-1-yl)propan-2-yl)oxy)-4-chlorophenyl)-N-(1-((1r,4r)-4-((2S,6R)-2,6-dimethylmorpholino)cyclohexyl)-3-((4-methyl-4H-1,2,4-triazol-3-yl)methoxy)-1H-pyrazol-4-yl)pyrimidin-2-amine] | – | < 10
10 | C[C@@H]1CN([C@H]2CC[C@H](n3cc(Nc4ncc(-c5ccc(Cl)c(O[C@@H](C)Cn6cnnn6)c5)cn4)c(OCCCOCCO)n3)CC2)C[C@H](C)O1 [Example 474, 2-(3-((4-((5-(3-(((S)-1-(1H-tetrazol-1-yl)propan-2-yl)oxy)-4-chlorophenyl)pyrimidin-2-yl)amino)-1-((1r,4r)-4-((2S,6R)-2,6-dimethylmorpholino)cyclohexyl)-1H-pyrazol-3-yl)oxy)propoxy)ethan-1-ol] | – | < 10
11 | C[C@@H]1CN([C@H]2CC[C@H](n3cc(Nc4ncc(-c5ccc(Cl)c(O[C@@H](C)Cn6cnnn6)c5)cn4)c(OCCCO)n3)CC2)C[C@H](C)O1 [Example 475, 3-((4-((5-(3-(((S)-1-(1H-tetrazol-1-yl)propan-2-yl)oxy)-4-chlorophenyl)pyrimidin-2-yl)amino)-1-((1r,4r)-4-((2S,6R)-2,6-dimethylmorpholino)cyclohexyl)-1H-pyrazol-3-yl)oxy)propan-1-ol] | – | < 10
12 | Cc1ncc(COc2nn([C@H]3CC[C@H](N4C[C@@H](C)O[C@@H](C)C4)CC3)cc2Nc2ncc(-c3ccc(C#N)c(O[C@@H](C)Cn4cnnn4)c3)cn2)s1 [Example 476, 2-(((S)-1-(1H-tetrazol-1-yl)propan-2-yl)oxy)-4-(2-((1-((1r,4r)-4-((2S,6R)-2,6-dimethylmorpholino)cyclohexyl)-3-((2-methylthiazol-5-yl)methoxy)-1H-pyrazol-4-yl)amino)pyrimidin-5-yl)benzonitrile] | – | < 10
13 | COC(C)(C)CCOc1nn([C@H]2CC[C@H](N3C[C@@H](C)O[C@@H](C)C3)CC2)cc1Nc1ncc(-c2ccc(C#N)c(O[C@@H](C)Cn3cnnn3)c2)cn1 [Example 478, 2-(((S)-1-(1H-tetrazol-1-yl)propan-2-yl)oxy)-4-(2-((1-((1r,4r)-4-((2S,6R)-2,6-dimethylmorpholino)cyclohexyl)-3-(3-methoxy-3-methylbutoxy)-1H-pyrazol-4-yl)amino)pyrimidin-5-yl)benzonitrile] | – | < 10
14 | C[C@@H]1CN([C@H]2CC[C@H](n3cc(Nc4ncc(-c5ccc(C#N)c(O[C@@H](C)Cn6cnnn6)c5)cn4)c(OCC4COC4)n3)CC2)C[C@H](C)O1 [Example 479, 2-(((S)-1-(1H-tetrazol-1-yl)propan-2-yl)oxy)-4-(2-((1-((1r,4r)-4-((2S,6R)-2,6-dimethylmorpholino)cyclohexyl)-3-(oxetan-3-ylmethoxy)-1H-pyrazol-4-yl)amino)pyrimidin-5-yl)benzonitrile] | – | < 10
15 | C[C@@H]1CN([C@H]2CC[C@H](n3cc(Nc4ncc(-c5ccc(Cl)c(O[C@@H](C)Cn6cnnn6)c5)cn4)c(OCC4COC4)n3)CC2)C[C@H](C)O1 [Example 480, 5-(3-(((S)-1-(1H-tetrazol-1-yl)propan-2-yl)oxy)-4-chlorophenyl)-N-(1-((1r,4r)-4-((2S,6R)-2,6-dimethylmorpholino)cyclohexyl)-3-(oxetan-3-ylmethoxy)-1H-pyrazol-4-yl)pyrimidin-2-amine] | – | < 10
16 | C[C@@H]1CN([C@H]2CC[C@H](n3cc(Nc4ncc(-c5ccc(Cl)c(O[C@@H](C)Cn6cnnn6)c5)cn4)c(OCCO)n3)CC2)C[C@H](C)O1 [Example 481, 2-((4-((5-(3-(((S)-1-(1H-tetrazol-1-yl)propan-2-yl)oxy)-4-chlorophenyl)pyrimidin-2-yl)amino)-1-((1r,4r)-4-((2S,6R)-2,6-dimethylmorpholino)cyclohexyl)-1H-pyrazol-3-yl)oxy)ethan-1-ol] | – | < 10
